Read-outs that look alike come from different tables or passages of the source.
Experiments:
[1] = system: CPT-K5 cells (camptothecin-resistant variant of RPMI 8402); experiment: MTT cytotoxicity assay, camptothecin-resistant CPT-K5; type: cell-based, human; conditions: Homo sapiens, CPT-K5, 96 h, read-out: Cytotoxicity IC50, CPT-K5
Description: (§1) The cytotoxicity was determined using the as MTT-microtiter plate tetrazolinium cytotoxicity assay (MTA) following the procedures of F. Denizot et al., J. Immunol. […] The cytotoxicity assay was performed using 96-well microtiter plates. Cells were grown in suspension at 37° C. in 5% CO2 and maintained by regular passage in RPMI medium supplemented with 10% heat inactivated fetal bovine serum, L-glutamine (2 mM), penicillin (100 U/ml), and streptomycin (0.1 mg/ml). For determination of IC50, cells were exposed continuously with varying concentrations of drug concentrations and MTT assays were performed at the end of the fourth day.

[2] = system: human lymphoblast RPMI 8402 cells; experiment: MTT cytotoxicity assay, RPMI 8402; type: cell-based; conditions: for IC50: Homo sapiens, RPMI 8402, 96 h, read-out: Cytotoxicity IC50, RPMI
Description: as §1

[3] = target: T1, calf thymus topoisomerase I (Bos taurus, UniProt A0AAA9TV68); experiment: Topoisomerase I-mediated DNA cleavage assay (calf thymus topoisomerase I, plasmid YEpG); type: biochemical
T1 construct: plasmid YEpG DNA cleavage assay
T1 sequence (A0AAA9TV68 2-769): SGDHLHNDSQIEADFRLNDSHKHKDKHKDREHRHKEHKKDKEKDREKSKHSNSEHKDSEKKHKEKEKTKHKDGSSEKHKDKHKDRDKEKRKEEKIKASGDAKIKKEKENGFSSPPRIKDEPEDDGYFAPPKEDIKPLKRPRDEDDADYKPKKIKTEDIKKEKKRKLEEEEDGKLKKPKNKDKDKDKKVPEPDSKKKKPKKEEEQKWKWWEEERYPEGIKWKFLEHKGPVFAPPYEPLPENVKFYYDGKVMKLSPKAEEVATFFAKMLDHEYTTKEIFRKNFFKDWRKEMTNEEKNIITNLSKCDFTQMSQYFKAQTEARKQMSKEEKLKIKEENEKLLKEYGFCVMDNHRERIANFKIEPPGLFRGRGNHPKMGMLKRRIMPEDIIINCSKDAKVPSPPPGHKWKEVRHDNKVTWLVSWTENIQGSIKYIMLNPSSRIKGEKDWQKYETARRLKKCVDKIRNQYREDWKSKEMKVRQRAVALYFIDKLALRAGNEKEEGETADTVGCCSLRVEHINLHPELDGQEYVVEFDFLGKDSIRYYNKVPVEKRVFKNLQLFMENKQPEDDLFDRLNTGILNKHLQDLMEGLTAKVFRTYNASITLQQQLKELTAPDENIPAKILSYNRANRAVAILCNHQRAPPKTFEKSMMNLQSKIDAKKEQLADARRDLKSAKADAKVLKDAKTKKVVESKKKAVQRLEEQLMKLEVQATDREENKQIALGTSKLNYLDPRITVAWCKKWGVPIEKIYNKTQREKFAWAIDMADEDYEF
Text: DNA topoisomerase I was purified from calf thymus gland as reported previously by B. D. Halligan et al., J. Biol. Chem., 260, 2475 (1985). Plasmid YEpG was also purified by the alkali lysis method followed by phenol deproteination and CsCl/ethidium isopycnic centrifugation as described by T. Mariatis et al., Molecular Cloning, A Laboratory Manual, Cold Spring Harbor Labs, NY (1982) at pages 149-185. The end-labeling of the plasmid was accomplished as previously described by L. F. Liu et al., J. Biol. Chem., 258, 15365 (1983). The cleavage assays were performed as previously reported by A. Y. Chen et al., Cancer Res., 53, 1332 (1993). Human topoisomerase was isolated as a recombinant fusion protein using a T7 expression system.
^b Topoisomerase I cleavage values are reported as REC, Relative
Effective Concentration, i.e. concentrations relative to Hoechst 33342,
whose value is arbitrarily assumed as 1, that are able to produce the sam
cleavage on the plasmid DNA in the presence of calf thymus topoisomerase
I. Cleavage is calculated from the intensity of the strongest Hoechst

mammalian tumor cells = experiment: Cytotoxicity to tumor cells, general statement; type: cell-based; conditions: cell line not specified
[4] = system: human epidermoid carcinoma KB3-1 cell line; experiment: MTT cytotoxicity assay, KB3-1; type: cell-based; conditions: KB 3-1, 96 h, 4 days continuous drug exposure
Description: as §1
(§2) These cells were grown as monolayer cultures at in 5% CO2 and maintained by regular passage in Dulbecco's minimal essential medium supplemented with 10% heat inactivated fetal bovine serum. KBV-1 cells were similarly maintained except they were grown in the presence of 1 μg/ml vinblastine.

[5] = system: KBV-1 cells (multidrug-resistant variant of KB3-1, overexpress MDR1); experiment: MTT cytotoxicity assay, multidrug-resistant KBV-1; type: cell-based, human; conditions: Homo sapiens, KB-V1, 96 h; 4 days continuous drug exposure; read-out: Cytotoxicity IC50, KBV-1
Description: as §1, §2

fungi = experiment: Antifungal activity
[6] = system: CPT-K5 cells (camptothecin-resistant variant of RPMI 8402); conditions: as reported by A. Y. Chen et al., Cancer Res., 53, 1332 (1993); cited from earlier work
[7] = 4 days continuous drug exposure

Brc1ccc2nc(-c3ccc4nc(-c5ccc6nc[nH]c6c5)[nH]c4c3)[nH]c2c1 [JSKIV-37, 5-Bromo-2-[2'-(benzimidazol-5"-yl)benzimidazol-5'-yl]-benzimidazole]
IC50 [1]: 1400 nM

N#Cc1ccc2[nH]c(-c3ccc4[nH]c(-c5ccc6[nH]cnc6c5)nc4c3)nc2c1 [Compound 11, 5-Cyano-2-[2'-(benzimidazol-5"-yl)benzimidazol-5'-yl]benzimidazole]
Cytotoxicity towards RPMI 8402 (in words) [2]: failed to exhibit significant cytotoxicity
IC50 [2, 7]: > 25000 nM
IC50 [1, 7]: > 25000 nM

Clc1ccc2nc(-c3ccc4nc(-c5ccc6nc[nH]c6c5)[nH]c4c3)[nH]c2c1 [JSKIV-68, 5-Chloro-2-[2'-(benzimidazol-5"-yl)benzimidazol-5'-yl]-benzimidazole]
IC50 [2, 7]: 1040 nM
IC50 [1]: 650 nM

Clc1ccc(-c2ccc3nc(-c4ccc5nc(-c6ccc7nc[nH]c7c6)[nH]c5c4)[nH]c3c2)cc1 [JSKIV-47, 5-(p-Chlorophenyl)-2-[2'-(benzimidazol-5"-yl)benzimidazol-5'-yl]-benzimidazole]
IC50 [2, 7]: 90 nM
IC50 [1, 7]: 200 nM

CCCc1ccc2nc(-c3ccc4nc(-c5ccc6nc[nH]c6c5)[nH]c4c3)[nH]c2c1 [Compound 12, 5-Propyl-2-[2'-(benzimidazol-5"-yl)benzimidazol-5'-yl]benzimidazole]
Potency as topoisomerase I inhibitor (in words) [3]: much less active than either 10, 11, or 13 as an inhibitor of topoisomerase I
IC50 [2, 7]: 7600 nM
IC50 [1, 7]: 20000 nM
Cytotoxicity to tumor cells (in words) (mammalian tumor cells): weak cytotoxicity

c1ccc(-c2ccc3nc(-c4ccc5nc(-c6ccc7nc[nH]c7c6)[nH]c5c4)[nH]c3c2)nc1 [Compound 14, 5-(2-Pyridyl)-2-[2'-(benzimidazol-5"-yl)benzimidazol-5'-yl]benzimidazole]
IC50 [2, 7]: 160 nM
IC50 [1]: 5800 nM
IC50 [4]: 50 nM
IC50 [5]: 90 nM
Antifungal activity (in words) (fungi): exhibits antifungal activity

c1ccc2[nH]c(-c3ccc4[nH]c(-c5ccc6[nH]cnc6c5)nc4c3)nc2c1 [Compound 10, 2-[2'-(Benzimidazol-5"-yl)benzimidazol-5'-yl]benzimidazole]
Cytotoxicity towards RPMI 8402 (in words) [2]: failed to exhibit significant cytotoxicity
IC50 [2]: 14000 nM
IC50 [1]: 28000 nM

N#Cc1ccc2nc(-c3ccc4nc[nH]c4c3)[nH]c2c1 [Compound 19, 5-Cyano-2-(benzimidazol-5'-yl)benzimidazole]
IC50 [2, 7]: > 25000 nM

c1cncc(-c2ccc3nc(-c4ccc5nc(-c6ccc7nc[nH]c7c6)[nH]c5c4)[nH]c3c2)c1 [Compound 15, 5-(3-Pyridyl)-2-[2'-(benzimidazol-5"-yl)benzimidazol-5'-yl]benzimidazole]
Potency as topoisomerase I inhibitor (in words) [3]: somewhat more active than the 2-pyridyl derivative, 14, as topoisomerase I inhibitors
IC50 [2, 7]: 35 nM
IC50 [1]: 2500 nM
IC50 [4]: 20 nM
IC50 [5]: 20 nM
Cytotoxicity to tumor cells (in words) (mammalian tumor cells): somewhat more active than the 2-pyridyl derivative, 14, as topoisomerase I inhibitors as well as cytotoxic agents

CC[C@@]1(O)C(=O)OCc2c1cc1n(c2=O)Cc2cc3ccccc3nc2-1 [camptothecin]
Relative resistance of camptothecin (ratio of IC50 values of resistant versus drug sensitive cell line) [6]: 2,500 fold

c1cc(-c2ccc3nc(-c4ccc5nc(-c6ccc7nc[nH]c7c6)[nH]c5c4)[nH]c3c2)ccn1 [Compound 16, 5-(4-Pyridyl)-2-[2'-(benzimidazol-5"-yl)benzimidazol-5'-yl]benzimidazole]
Potency as topoisomerase I inhibitor (in words) [3]: somewhat more active than the 2-pyridyl derivative, 14, as topoisomerase I inhibitors
IC50 [2, 7]: 35 nM
IC50 [1]: 2500 nM
IC50 [4]: 20 nM
IC50 [5]: 10 nM
Cytotoxicity to tumor cells (in words) (mammalian tumor cells): somewhat more active than the 2-pyridyl derivative, 14, as topoisomerase I inhibitors as well as cytotoxic agents
